Experimental data taken from PubChem BioAssay (NCI).
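Test compounds were applied to cells in 96-well plates for 48 hours at 5 doses. TGI marks complete inhibition of growth.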

Experiments:
Test in all cases: NCI-60 cell line screen, 48 h
A498 renal = system: A498 renal
A549 NSCLC = system: A549 NSCLC
ACHN renal = system: ACHN renal
CAKI-1 renal = system: CAKI-1 renal
CCRF-CEM leukemia = system: CCRF-CEM leukemia
COLO 205 colon = system: COLO 205 colon
DLD-1 colon = system: DLD-1 colon
DMS 114 small cell lung = system: DMS 114 small cell lung
DMS 273 small cell lung = system: DMS 273 small cell lung
EKVX NSCLC = system: EKVX NSCLC
HCC-2998 colon = system: HCC-2998 colon
HCT-116 colon = system: HCT-116 colon
HCT-15 colon = system: HCT-15 colon
HL-60(TB) leukemia = system: HL-60(TB) leukemia
HOP-62 NSCLC = system: HOP-62 NSCLC
HOP-92 NSCLC = system: HOP-92 NSCLC
HT29 colon = system: HT29 colon
IGROV1 ovarian = system: IGROV1 ovarian
K-562 leukemia = system: K-562 leukemia
KM12 colon = system: KM12 colon
KM20L2 colon = system: KM20L2 colon
LXFL 529 NSCLC = system: LXFL 529 NSCLC
M14 melanoma = system: M14 melanoma
M19-MEL melanoma = system: M19-MEL melanoma
MALME-3M melanoma = system: MALME-3M melanoma
MOLT-4 leukemia = system: MOLT-4 leukemia
NCI-H23 lung = system: NCI-H23 lung
NCI-H460 lung = system: NCI-H460 lung
NCI-H522 lung = system: NCI-H522 lung
OVCAR-3 ovarian = system: OVCAR-3 ovarian
OVCAR-4 ovarian = system: OVCAR-4 ovarian
OVCAR-5 ovarian = system: OVCAR-5 ovarian
OVCAR-8 ovarian = system: OVCAR-8 ovarian
RPMI-8226 leukemia = system: RPMI-8226 leukemia
SF-268 CNS = system: SF-268 CNS
SF-295 CNS = system: SF-295 CNS
SF-539 CNS = system: SF-539 CNS
SK-MEL-2 melanoma = system: SK-MEL-2 melanoma
SK-MEL-28 melanoma = system: SK-MEL-28 melanoma
SK-MEL-5 melanoma = system: SK-MEL-5 melanoma
SK-OV-3 ovarian = system: SK-OV-3 ovarian
SN12C renal = system: SN12C renal
SNB-19 CNS = system: SNB-19 CNS
SNB-75 CNS = system: SNB-75 CNS
SR leukemia = system: SR leukemia
SW-620 colon = system: SW-620 colon
TK-10 renal = system: TK-10 renal
U251 CNS = system: U251 CNS
UACC-257 melanoma = system: UACC-257 melanoma
UACC-62 melanoma = system: UACC-62 melanoma
UO-31 renal = system: UO-31 renal
XF 498 CNS = system: XF 498 CNS
786-0 renal = system: 786-0 renal
HOP-18 NSCLC = system: HOP-18 NSCLC
NCI-H226 lung = system: NCI-H226 lung
RXF 393 renal = system: RXF 393 renal
LOX IMVI melanoma = system: LOX IMVI melanoma
SNB-78 CNS = system: SNB-78 CNS

CC(C)OP(=O)(OC(C)C)/C(F)=N/Nc1ccc([N+](=O)[O-])cc1
TGI (A498 renal): > 100 µM | TGI (A549 NSCLC): > 100 µM | TGI (ACHN renal): > 100 µM | TGI (CAKI-1 renal): > 100 µM | TGI (CCRF-CEM leukemia): > 100 µM | TGI (COLO 205 colon): > 100 µM | TGI (DLD-1 colon): > 100 µM | TGI (DMS 114 small cell lung): > 100 µM | TGI (DMS 273 small cell lung): > 100 µM | TGI (EKVX NSCLC): > 100 µM | TGI (HCC-2998 colon): > 100 µM | TGI (HCT-116 colon): > 100 µM | TGI (HCT-15 colon): > 100 µM | TGI (HL-60(TB) leukemia): > 100 µM | TGI (HOP-62 NSCLC): > 100 µM | TGI (HOP-92 NSCLC): > 100 µM | TGI (HT29 colon): > 100 µM | TGI (IGROV1 ovarian): > 100 µM | TGI (K-562 leukemia): > 100 µM | TGI (KM12 colon): > 100 µM | TGI (KM20L2 colon): > 100 µM | TGI (LXFL 529 NSCLC): > 100 µM | TGI (M14 melanoma): > 100 µM | TGI (M19-MEL melanoma): > 100 µM | TGI (MALME-3M melanoma): > 100 µM | TGI (MOLT-4 leukemia): > 100 µM | TGI (NCI-H23 lung): > 100 µM | TGI (NCI-H460 lung): > 100 µM | TGI (NCI-H522 lung): > 100 µM | TGI (OVCAR-3 ovarian): > 100 µM | TGI (OVCAR-4 ovarian): > 100 µM | TGI (OVCAR-5 ovarian): > 100 µM | TGI (OVCAR-8 ovarian): > 100 µM | TGI (RPMI-8226 leukemia): > 100 µM | TGI (SF-268 CNS): > 100 µM | TGI (SF-295 CNS): > 100 µM | TGI (SF-539 CNS): > 100 µM | TGI (SK-MEL-2 melanoma): > 100 µM | TGI (SK-MEL-28 melanoma): > 100 µM | TGI (SK-MEL-5 melanoma): > 100 µM | TGI (SK-OV-3 ovarian): > 100 µM | TGI (SN12C renal): > 100 µM | TGI (SNB-19 CNS): > 100 µM | TGI (SNB-75 CNS): > 100 µM | TGI (SR leukemia): > 100 µM | TGI (SW-620 colon): > 100 µM | TGI (TK-10 renal): > 100 µM | TGI (U251 CNS): > 100 µM | TGI (UACC-257 melanoma): > 100 µM | TGI (UACC-62 melanoma): > 100 µM | TGI (UO-31 renal): > 100 µM | TGI (XF 498 CNS): > 100 µM

Cc1c(C)n(COCCO)c2ncnc(N)c12
TGI (786-0 renal): > 100 µM | TGI (A498 renal): > 100 µM | TGI (A549 NSCLC): > 100 µM | TGI (ACHN renal): > 100 µM | TGI (CAKI-1 renal): > 100 µM | TGI (CCRF-CEM leukemia): > 100 µM | TGI (COLO 205 colon): > 100 µM | TGI (DLD-1 colon): > 100 µM | TGI (DMS 273 small cell lung): > 100 µM | TGI (EKVX NSCLC): > 100 µM | TGI (HCC-2998 colon): > 100 µM | TGI (HCT-15 colon): > 100 µM | TGI (HL-60(TB) leukemia): > 100 µM | TGI (HOP-18 NSCLC): > 100 µM | TGI (HOP-92 NSCLC): > 100 µM | TGI (HT29 colon): > 100 µM | TGI (IGROV1 ovarian): > 100 µM | TGI (K-562 leukemia): > 100 µM | TGI (KM12 colon): > 100 µM | TGI (KM20L2 colon): > 100 µM | TGI (LXFL 529 NSCLC): > 100 µM | TGI (M14 melanoma): > 100 µM | TGI (M19-MEL melanoma): > 100 µM | TGI (MOLT-4 leukemia): > 100 µM | TGI (NCI-H226 lung): > 100 µM | TGI (NCI-H23 lung): > 100 µM | TGI (NCI-H460 lung): > 100 µM | TGI (NCI-H522 lung): > 100 µM | TGI (OVCAR-3 ovarian): > 100 µM | TGI (OVCAR-4 ovarian): > 100 µM | TGI (OVCAR-8 ovarian): > 100 µM | TGI (RPMI-8226 leukemia): > 100 µM | TGI (RXF 393 renal): > 100 µM | TGI (SF-268 CNS): > 100 µM | TGI (SF-295 CNS): > 100 µM | TGI (SF-539 CNS): > 100 µM | TGI (SK-MEL-2 melanoma): > 100 µM | TGI (SK-MEL-28 melanoma): > 100 µM | TGI (SK-MEL-5 melanoma): > 100 µM | TGI (SK-OV-3 ovarian): > 100 µM | TGI (SN12C renal): > 100 µM | TGI (SNB-19 CNS): > 100 µM | TGI (SNB-75 CNS): > 100 µM | TGI (SR leukemia): > 100 µM | TGI (SW-620 colon): > 100 µM | TGI (TK-10 renal): > 100 µM | TGI (U251 CNS): > 100 µM | TGI (UO-31 renal): > 100 µM | TGI (XF 498 CNS): > 100 µM

O=C1OC(Cl)C(N=P(c2ccccc2)(c2ccccc2)c2ccccc2)=C1Cl (stereo unspecified)
TGI (786-0 renal): > 100 µM | TGI (A498 renal): > 100 µM | TGI (A549 NSCLC): > 100 µM | TGI (CAKI-1 renal): > 100 µM | TGI (CCRF-CEM leukemia): > 100 µM | TGI (COLO 205 colon): > 100 µM | TGI (DLD-1 colon): > 100 µM | TGI (DMS 114 small cell lung): > 100 µM | TGI (DMS 273 small cell lung): > 100 µM | TGI (EKVX NSCLC): > 100 µM | TGI (HCC-2998 colon): > 100 µM | TGI (HCT-116 colon): > 100 µM | TGI (HL-60(TB) leukemia): > 100 µM | TGI (HOP-62 NSCLC): > 100 µM | TGI (HOP-92 NSCLC): > 100 µM | TGI (HT29 colon): > 100 µM | TGI (IGROV1 ovarian): > 100 µM | TGI (K-562 leukemia): > 100 µM | TGI (KM12 colon): > 100 µM | TGI (LOX IMVI melanoma): > 100 µM | TGI (LXFL 529 NSCLC): > 100 µM | TGI (M14 melanoma): > 100 µM | TGI (M19-MEL melanoma): > 100 µM | TGI (MALME-3M melanoma): > 100 µM | TGI (MOLT-4 leukemia): > 100 µM | TGI (NCI-H226 lung): > 100 µM | TGI (NCI-H23 lung): > 100 µM | TGI (NCI-H522 lung): > 100 µM | TGI (OVCAR-3 ovarian): > 100 µM | TGI (OVCAR-4 ovarian): > 100 µM | TGI (OVCAR-8 ovarian): > 100 µM | TGI (RPMI-8226 leukemia): > 100 µM | TGI (SF-268 CNS): > 100 µM | TGI (SF-295 CNS): > 100 µM | TGI (SF-539 CNS): > 100 µM | TGI (SK-MEL-2 melanoma): > 100 µM | TGI (SK-MEL-28 melanoma): > 100 µM | TGI (SK-MEL-5 melanoma): > 100 µM | TGI (SK-OV-3 ovarian): > 100 µM | TGI (SN12C renal): > 100 µM | TGI (SNB-19 CNS): > 100 µM | TGI (SNB-75 CNS): 85.4 µM | TGI (SNB-78 CNS): > 100 µM | TGI (SR leukemia): > 100 µM | TGI (SW-620 colon): > 100 µM | TGI (TK-10 renal): > 100 µM | TGI (UACC-257 melanoma): > 100 µM | TGI (UACC-62 melanoma): > 100 µM | TGI (UO-31 renal): > 100 µM | TGI (XF 498 CNS): > 100 µM
